Data on one molecule can be found in patent US20190151294A1, “TREATMENT OF ALCOHOLISM AND DEPRESSION AND/OR DYSPHORIC MOOD USING IBUDILAST” (MEDICINOVA, INC., priority 2016, published 2019).

Series [1] deals with non-treatment-seeking individuals with AUD. Description: Phase 1b study: daily alcohol craving (AUQ). It is filed as in vivo, human. The following applies: 50 mg BID; over the course of the study; p<0.05; FIG. 4. On the procedure:
Twenty four non-treatment-seeking individuals with AUD were treated with ibudilast (50 mg BID) and placebo (PBO). Participants completed two alcohol IV challenges, one after taking IBUD for 6 days and one after taking matched PBO for 6 days with a 5-10 day washout period between the study drug conditions. Ibudilast was obtained in the form of capsules containing a delayed-release 10 mg formulation. Matching capsules of the placebo also were obtained. Each participant visited the Clinical and Translational Research Center (CTRC) during on Days 1-5 of each medication condition during which they came in for daily morning visits with the study nurse to take the morning study medication under direct observation and took home the evening study medication. The participants stayed overnight on Day 6 and were discharged on Day 7. […]
(§1) The study comprised a treatment group and a placebo group and each participant completed a daily assessment questionnaire to address changes in mood, withdrawal effects, alcohol cravings, and address issues pertaining to other side effects. […] Following the intravenous alcohol challenge, participants were monitored for 24 hours and then discharged. Following a 5-10 day washout period study participants were readmitted to the CTRC where they received the opposite treatment (IBUD or PBO) for the second part of the study.

Series [2] has the same test system. Briefly: Phase 1b study: cue reactivity assessment (CR). In kind it is in vivo, human. Particulars: 50 mg BID. From the text:
The present study also assessed the reactivity of participants to alcohol cues at each dose of medication such that participants served as their own controls. […] The CR assessments followed well-established procedures and participants received standardized instructions about the assessment as they became acclimated to the psychophysiological monitors.
CR assessment sessions began with a 3-minute relaxation period, in which participants were asked to sit quietly and do nothing. Participants then held and smelled a glass of water for 3 minutes as a standard procedure to control for the effects of simple exposure to any potable liquid, followed by a second 3-minute relaxation period. Next, each participant held and smelled a glass of their preferred alcoholic beverage for three minutes. During each trial, the participant was asked to sniff the beverage for 5 consecutive seconds upon hearing a tone sound. Thirteen tone sounds were administered during each 3-minute block of time. […]
Following each 3 minute exposure to alcohol, each participant rated his/her urge to drink alcohol using the 11-point Likert scale (e.g., “none at all” to “extremely strong urge”). Heart rate (beats per minute; BPM) and blood pressure (systolic, diastolic, and mean arterial pressure [MAP]) were monitored continuously using a Dynamap Adult Vital Signs Monitor and values were averaged over each 3-minute trial. […]

Series [3] deals with high-alcohol-drinking (HAD1) rats. Description: Voluntary ethanol consumption in high-alcohol-drinking (HAD1) rats. Particulars: for dose dependence of effect on ethanol intake (2-way mixed ANOVA): p<0.001. In kind it is in vivo, rat. On the procedure:
To perform the study, adult male P and HAD1 rats were randomly assigned to receive one of the following four doses of ibudilast—0 mg/Kg, 3 mg/Kg, 6 mg/Kg, or 9 mg/Kg with eight rats assigned to each dose. Each dosing group was balanced to average a 2 h/day ethanol (15% v/v) intake. Water was concurrently available to the rats and Mazola corn oil was used as the vehicle.
The study was divided into four test phases. In the maintenance test phase rats in the treatment group were injected ibudilast subcutaneously (2 mL/kg s.c.), using standard solutions that deliver 3 mg/Kg, 6 mg/Kg or 9 mg/Kg of ibudilast, 60 min before each ethanol test session and the same dose of ibudilast was administered subcutaneously to the rats 8 hours later. Rats in the control group, however, are administered 2 mL/Kg Mazola corn oil subcutaneously. This protocol was carried out for 4 consecutive days. Following the maintenance test phase, is a two week no drug recovery phase during which rats are permitted access to ethanol and the amount of ethanol consumed by the rats was measured.
The recovery phase is followed by a two week forced ethanol abstinence phase. Following forced abstinence, the effects of ibudilast on ethanol drinking were examined by re-introducing ethanol to rats for a period of 5 consecutive days (i.e., the Relapse Test phase). Each animal received the same dose of ibudilast during maintenance and relapse test phases.

For series [4], the system named is non-treatment-seeking individuals with AUD. Description: Phase 1b study: safety and tolerability. In kind it is in vivo, human. On the procedure: A Phase 1b laboratory study was conducted to determine the safety, tolerability, and initial efficacy of ibudilast (50 mg BID) in humans as a potential AUD therapeutic agent.
To address each of the above mentioned specific aims, a randomized, crossover, double-blind, placebo-controlled study was conducted to determine the safety, tolerability, and efficacy of ibudilast in individuals with current AUD. Participants were between the ages of 21 and 65 years; met the DSM-5 diagnostic criteria for AUD; reported drinking at least 48 standard drinks in a 30-day period, during the 90 days before enrollment; and were non-treatment seeking alcohol dependent individuals who consented to an inpatient stay at a medical facility for part of the study.
Twenty four non-treatment-seeking individuals with AUD were treated with ibudilast (50 mg BID) and placebo (PBO). Participants completed two alcohol IV challenges, one after taking IBUD for 6 days and one after taking matched PBO for 6 days with a 5-10 day washout period between the study drug conditions. Ibudilast was obtained in the form of capsules containing a delayed-release 10 mg formulation. Matching capsules of the placebo also were obtained. Each participant visited the Clinical and Translational Research Center (CTRC) during on Days 1-5 of each medication condition during which they came in for daily morning visits with the study nurse to take the morning study medication under direct observation and took home the evening study medication. The participants stayed overnight on Day 6 and were discharged on Day 7. During the daily visits to the CTRC, the study nurse collected vital signs, asked about side effects in an open-ended fashion and used the Systematic Assessment for Treatment Emergent Events (SAFTEE).
as §1, with “effects. Thus, non-treatment seeking alcohol dependent individuals were treated with ibudilast 50 mg (5×10 mg capsules) twice daily (BID) or placebo (PBO).” for “effects.”
Breath alcohol content (BrAC) was monitored every 3 to 5 minutes during infusion until target BrAC's of 0.02 g·dl, 0.04 g·dl, 0.06 g·dl, and 0.08 g·dl were obtained, following which infusion rates were reduced to half the original rate to maintain stable BrAC levels during the testing phase. The following parameters were assessed prior to intravenous alcohol challenge and again at each target BrAC: (1) Biphasic Alcohol Effects Scale (BAES) to obtain a reliable and valid measure of alcohol's stimulant and sedative effects; (2) Alcohol Urge Questionnaire (AUQ)—an 8-item scale where subjects rate their craving for alcohol at the present moment, which is appropriate for examining the level of the urge to drink alcohol; (3) Alcohol Ratings Scale, which captures “liking” and “wanting” of alcohol”; (4) The Profile of Mood States (POMS; McNair 1971) which was used to record positive and negative mood states; and (5) Heart Rate and Blood Pressure levels measure at baseline and at each target level of BrAC.

Regarding `CC(C)C(=O)c1c(C(C)C)nn2ccccc12` [ibudilast, Ibudilast], in series [1], the “basal, daily alcohol craving (AUQ)” value is “significantly decreased”. Besides, the “cue-induced AUQ craving” value in series [2] (day 6 alcohol cue-exposure) is on record as “did not affect”. Also, the “positive mood during cue reactivity” value in series [2] (p=0.07) was “increased positive mood”. The “reduction of ethanol intake” value in series [3] (HAD1 rats, 5-day Relapse Test phase) is “about 50%”; in series [3] (HAD1 rats, maintenance test phase, 4 days, s.c. twice daily, vs vehicle), “approximately 50%”. For the same molecule, the “dose dependence of effect on ethanol intake (2-way mixed ANOVA)” value in series [3] (HAD1 rats, Relapse Test phase) was “dose dependent reduction in ethanol intake”; in series [3] (HAD1 rats, maintenance test phase, 0, 3, 6, 9 mg/Kg), “dose dependent reduction of ethanol intake”. In addition, in series [3] (HAD1 rats, p=0.023, data not shown), the “time course of reduced ethanol intake (Dose x Day interaction)” value is “most robust on the first day”. Moreover, in series [3] (HAD rats, especially at the 9 mg/Kg dose, effect diminished over the 5-day test phase), the 24-hour food intake entry is reported as “transitory reductions”. Further, the “dose reductions during the course of the study” value in series [4] (50 mg BID) is reported as “no dose reductions”. In addition, the “drop-outs for adverse event-related reasons” value in series [4] (50 mg BID) was “No subjects dropped out”. Also, in series [4] (50 mg BID oral (20 mg BID days 1-2), 6 days, humans with AUD), the tolerability and safety result is “well tolerated and safe”. Further, the “heart rate or blood pressure in the context of alcohol consumption” value in series [4] (50 mg BID, IV alcohol, across the BrACs, p's>=0.35) is reported as “did not affect”. Also, the “headache, reported adverse drug effect” value in series [4] (50 mg BID, vs 0 during placebo, p<0.05) was found to be 4 instances.
